Measured values as given in article PMC5059724, “Purification and characterization of a novel phloretin-2′-O-glycosyltransferase favoring phloridzin biosynthesis” (Scientific Reports, 2016).

Columns and labels:
[1] = target: MdP2′GT (Malus domestica, UniProt A0A0X9XIE3); experiment: Effects of metal ions and other compounds on purified MdP2′GT activity; assay type: biochemical, Malus x domestica; set-up: key to IC50: ND: no effects detected at selected concentrations; Activator: additions increased MdP2′GT activity at selected concentrations; conditions: for Effect of co-solvent on enzyme activity: 20% co-solvent
[2] = target: T1, MdP2′GT (Malus domestica, UniProt A0A0X9XIE3); experiment: Inhibition of phloridzin formation by purified MdP2′GT from 270 uM UDPG and 20 uM phloretin, 50 mM Tris/HCl pH 7.5, 5 mM DTT, 30 °C, 30 min, product quantified by HPLC-DAD.; assay type: biochemical
T1 construct: gene P2'GT
T1 sequence (A0A0X9XIE3 1-483): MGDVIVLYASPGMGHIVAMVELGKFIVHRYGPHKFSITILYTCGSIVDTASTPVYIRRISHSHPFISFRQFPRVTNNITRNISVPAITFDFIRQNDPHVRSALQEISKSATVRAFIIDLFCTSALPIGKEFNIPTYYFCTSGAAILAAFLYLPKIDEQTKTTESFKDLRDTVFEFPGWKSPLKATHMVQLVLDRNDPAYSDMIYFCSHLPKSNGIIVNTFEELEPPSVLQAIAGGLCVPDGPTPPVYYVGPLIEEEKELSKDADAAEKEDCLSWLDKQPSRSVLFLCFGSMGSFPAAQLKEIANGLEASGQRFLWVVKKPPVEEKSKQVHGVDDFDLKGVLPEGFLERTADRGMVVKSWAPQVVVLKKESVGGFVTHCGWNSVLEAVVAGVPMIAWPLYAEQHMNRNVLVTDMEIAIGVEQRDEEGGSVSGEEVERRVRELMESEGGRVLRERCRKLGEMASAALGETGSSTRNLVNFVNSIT

[3] = test system: T2, UGT71A15; experiment: Literature Km for 2′-OH glycosylation of phloretin with the UDPG/phloretin combination, quoted in the comparison table.; assay type: biochemical; conditions: read-out: Km (μM), reported P2′GTs; cited from earlier work
T2 construct: literature enzyme, MW 52 kDa
Text: (§1) Table 5 Enzyme characters and Kinetic parameters of MdP2′GT and reported P2′GTs. | Km (μM), reported P2′GTs

[4] = test system: T3, UGT88F1; experiment: as above; assay type: biochemical; conditions: read-out: Km (μM), reported P2′GTs; cited from earlier work
T3 construct: literature enzyme, MW 59 kDa
Text: as §1

[5] = target: Phloretin-2′-O-glycosyltransferase of Malus x domestica (MdP2′GT) (Malus x domestica); experiment: SEC; Sephacryl S-300 column, 5 mg/ml purified MdP2′GT, buffer D (50 mM Tris-HCl pH 7.5, 200 mM NaCl, 5 mM DTT), calibrated with five marker proteins; native protein and protein deglycosylated with PNGase F or Endo H under native conditions; mass confirmed by MALDI-TOF
[6] = 0.5 h, pH 7.5, addition at 5 mM, compared to a control in which none is added, read-out: Relative activity
[7] = addition at 5 mM, compared to a control in which none is added
[8] = addition at 0.5 mM, compared to a control in which none is added
[9] = concentration of inhibitor required to reduce the original MdP2′GT activity by 50%, read-out: IC50
[10] = concentration of inhibitor required to reduce the original MdP2′GT activity by 50%

Which activity at 5000 µM [1, 6] does the source give for O[C@@H](CS)[C@@H](O)CS (racemic) [Dithiothreitol] here?
The activity at 5000 µM was 99.2 ± 1.43%.

What about the Relative activity [1, 7] of the same molecule?
Its Relative activity is “No obvious effects”.

For O=c1ccn([C@@H]2O[C@H](CO[P@@](=O)(O)O[P@@](=O)(O)OP(=O)(O)O)[C@@H](O)[C@H]2O)c(=O)[nH]1 (stereo in doubt) [UTP, uridine triphosphate], which activity at 5000 µM [1, 6] is on record?
Its activity at 5000 µM is 3.05 ± 0.26%.

For O=C(CCc1ccc(O)c(O)c1)c1c(O)cc(O)cc1O[C@@H]1O[C@H](CO)[C@@H](O)[C@H](O)[C@H]1O [3-hydroxyphloridzin, 3-hydroxyphloridzin], which Relative activity [1, 7] is on record?
The Relative activity was 15.65 ± 0.58%.

With O=C(CCc1ccc(O)c(O)c1)c1c(O)cc(O)cc1O[C@@H]1O[C@H](CO)[C@@H](O)[C@H](O)[C@H]1O [3-hydroxyphloridzin] as the molecule, how does the IC50 ([2]; read-out: IC50/) read?
Its IC50 is 2500 ± 200 µM.

Which results are given for NCCc1ccc(S(=O)(=O)F)cc1 [AEBSF, 4-(2-Aminoethyl) benzenesulfonyl fluoride]?
Relative activity [1, 8]: No obvious effects; Relative activity ([1]; addition at 0.5 mM, compared to a control in which none is added, 30 min, 500 µM): 99.51 ± 2.36%

Which Relative activity [1, 7] does the source give for [Cl][Al]([Cl])[Cl] [AlCl3] here?
Its Relative activity is 67.81 ± 1.03%.

And the Relative activity ([1]; addition at 5 mM, compared to a control in which none is added, listed as Al^3+)?
Its Relative activity is “partially inhibited”.

And the IC50 [1, 9]?
The IC50 was 8000 ± 500 µM.

With [Ba+2].[Cl-].[Cl-] [BaCl2] as the molecule, how does the Relative activity [1, 8] read?
The Relative activity was “negligibly affected”.

What about the Relative activity [1, 7] of the same molecule?
Its Relative activity is 99.03 ± 2.54%.

Which Relative activity [1, 7] does the source give for [Ca+2].[Cl-].[Cl-] [CaCl2] here?
The Relative activity was 54.21 ± 1.05%.

And the Relative activity ([1]; addition at 5 mM, compared to a control in which none is added, listed as Ca^2+)?
Its Relative activity is “partially inhibited”.

What about the IC50 [1, 9] of the same molecule?
Its IC50 is 5500 ± 120 µM.

With [Cl-].[Cl-].[Co+2] [CoCl2] as the molecule, how does the IC50 ([1]; read-out: IC50) read?
Its IC50 is 50 ± 10 µM.

For [Cl][Cu][Cl] [CuCl2], which Relative activity [1, 7] is on record?
The Relative activity was 0.00 ± 0.00%.

What about the Relative activity ([1]; addition at 5 mM, compared to a control in which none is added, listed as Cu^2+) of the same molecule?
Its Relative activity is “completely inhibited”.

What about the IC50 [1, 9] of the same molecule?
The IC50 was 10 ± 10 µM.

Which results are given for C[S+](C)[O-] [Dimethyl sulfoxide]?
Effect of co-solvent on enzyme activity [1]: no effects; Relative activity ([1]; addition at 704 mM, compared to a control in which none is added): 99.54 ± 1.40%

Which IC50 [1, 9] does the source give for [Cl][Fe]([Cl])[Cl] [FeCl3] here?
Its IC50 is 6500 ± 230 µM.

Which results are given for O=S(=O)([O-])[O-].[Fe+2] [FeSO4]?
Relative activity [1, 7]: 119.43 ± 3.61%; IC50 [1, 10]: Activator

For OCC(O)CO [Glycerol], which activity at 686000 µM ([1]; 0.5 h, pH 7.5, addition at 686 mM (text: 5% glycerol), compared to a control in which none is added, read-out: Relative activity) is on record?
The activity at 686000 µM was 98.1 ± 2.15%.

What about the Relative activity ([1]; addition at 686 mM (text: 5% glycerol), compared to a control in which none is added) of the same molecule?
Its Relative activity is “No obvious effects”.

Which Relative activity [1, 8] does the source give for [Cl-].[K+] [KCl] here?
The Relative activity was “negligibly affected”.

And the Relative activity [1, 7]?
Its Relative activity is 99.58 ± 2.31%.

Which “Effect of co-solvent on enzyme activity” value [1] does the source give for CO [Methanol] here?
The value was “no effects”.

And the Relative activity ([1]; addition at 1236 mM, compared to a control in which none is added)?
Its Relative activity is 99.23 ± 1.41%.

For [Cl-].[Cl-].[Mg+2] [MgCl2], which Relative activity ([1]; addition at 2 mM, compared to a control in which none is added) is on record?
The Relative activity was 130.35 ± 3.53%.

What about the Relative activity ([1]; addition at 2 mM, compared to a control in which none is added, listed as Mg^2+) of the same molecule?
The Relative activity was 130%.

What about the IC50 [1, 10] of the same molecule?
Its IC50 is “Activator”.

With O=S(=O)([O-])[O-].[Mn+2] [MnSO4] as the molecule, how does the Relative activity [1, 7] read?
The Relative activity was 47.41 ± 1.13%.

And the Relative activity ([1]; addition at 5 mM, compared to a control in which none is added, listed as Mn^2+)?
Its Relative activity is “partially inhibited”.

And the IC50 [1, 9]?
Its IC50 is 4500 ± 110 µM.

For CCN1C(=O)C=CC1=O [N-Ethylmaleimide], which activity at 1000 µM ([1]; 0.5 h, pH 7.5, addition at 1 mM, compared to a control in which none is added, read-out: Relative activity) is on record?
The activity at 1000 µM was 20.5 ± 1.08%.

What about the Relative activity ([1]; addition at 1 mM, compared to a control in which none is added) of the same molecule?
The Relative activity was “strong inhibition”.

What about the IC50 [1, 9] of the same molecule?
Its IC50 is 280 ± 10 µM.

With [Cl-].[Na+] [NaCl, Sodium chloride] as the molecule, how does the Relative activity ([1]; addition at 500 mM, compared to a control in which none is added) read?
The Relative activity was 100 ± 1.00%.

And the Relative activity ([1]; addition at 500 mM, compared to a control in which none is added, listed as Sodium chloride)?
Its Relative activity is “no obvious inhibitory effects”.

For [Cl][Ni][Cl] [NiCl2], which Relative activity [1, 8] is on record?
The Relative activity was “negligibly affected”.

What about the Relative activity [1, 7] of the same molecule?
The Relative activity was 98.26 ± 2.08%.

Which Km [3] does the source give for O=C(CCc1ccc(O)cc1)c1c(O)cc(O)cc1O [Phloretin, phloretin] here?
Its Km is 82 µM.

And the Km [4]?
Its Km is 0.62 µM.

Which IC50 ([2]; read-out: IC50/) does the source give for O=C(CCc1ccc(O)cc1)c1c(O)cc(O[C@@H]2O[C@H](CO)[C@@H](O)[C@H](O)[C@H]2O)cc1O [Trilobatin, trilobatin] here?
Its IC50 is 3000 ± 210 µM.

For O=C(CCc1ccc(O)cc1)c1c(O)cc(O[C@@H]2O[C@H](CO)[C@@H](O)[C@H](O)[C@H]2O)cc1O [Trilobatin], which Relative activity [1, 7] is on record?
The Relative activity was 21.70 ± 1.15%.

Which IC50 ([2]; read-out: IC50/) does the source give for O=c1ccn([C@@H]2O[C@H](COP(=O)(O)OP(=O)(O)O)[C@@H](O)[C@H]2O)c(=O)[nH]1 [UDP, uridine diphosphate] here?
Its IC50 is 100 ± 10 µM.

With O=c1ccn([C@@H]2O[C@H](COP(=O)(O)O)[C@@H](O)[C@H]2O)c(=O)[nH]1 [UMP, uridine monophosphate] as the molecule, how does the Relative activity [1, 7] read?
Its Relative activity is 38.25 ± 1.07%.

What about the IC50 ([2]; read-out: IC50/) of the same molecule?
The IC50 was 4000 ± 130 µM.

Which IC50 [1, 9] does the source give for O=c1ccn([C@@H]2O[C@H](COP(=O)(O)OP(=O)(O)OP(=O)(O)O)[C@@H](O)[C@H]2O)c(=O)[nH]1 [UTP, uridine triphosphate] here?
Its IC50 is 2500 ± 100 µM.

For O=c1ccn([C@@H]2O[C@H](CO)[C@@H](O)[C@H]2O)c(=O)[nH]1 [Uridine], which activity at 5000 µM [1, 6] is on record?
Its activity at 5000 µM is 98.2 ± 2.12%.

Which IC50 [2] does the source give for O=C(O)c1cc[c]([Hg+])cc1 [p-hydroxymercuribenzoate, p-hydroxymercuribenzoate (PHMB)] here?
Its IC50 is 240 ± 70 µM.

For OCCS [β-mercaptoethanol], which Relative activity [1, 7] is on record?
Its Relative activity is 99.02 ± 1.47%.

And the Relative activity ([1]; addition at 5 mM, compared to a control in which none is added, listed as β-ME)?
The Relative activity was “No obvious effects”.

Which stoichiometry N [5] does the source give for “Phloretin-2′-O-glycosyltransferase of Malus x domestica (MdP2′GT) (enzyme)” here?
The stoichiometry N was 2.

With p-hydroxymercuribenzoate as the molecule, how does the IC50 [1, 9] read?
The IC50 was 240 ± 70 µM.
